System: human monocytic cell line U937
Assay: Human U937 cellular necroptosis assay
Assay type: cell-based
Conditions: U-937; U937 cells stimulated with 25 ng/mL human TNFalpha and 25 μM z-VAD-FMK; 22 hr; viability by Cell Titer-Glo 2.0; read-out: hU937 IC50
Protocol: Human U937 Cellular Necroptosis Assay
The human monocytic cell line U937 (CRL-1593.2) may be purchased from ATCC. The cells are routinely maintained in RPMI-1640 Medium (Gibco, Catalog #11875-093) supplemented with 10% heat inactivated fetal bovine serum (Gibco, Catalog #16140-071), 100 units/mL penicillin and 100 μg/mL streptomycin (Gibco, Catalog #15140-122), in a humidified incubator (37° C., 5% CO2). For the assay, cells are resuspended in RPMI-1640 phenol red free Media (Gibco, Catalog #11835-030) supplemented with 10% fetal bovine serum (Sigma, Catalog #F2442), 100 units/mL penicillin and 100 ug/mL streptomycin. Cells are stimulated with 25 ng/mL human TNFalpha (Cell Sciences, Catalog #CSI15659B) and 25 μM z-VAD-FMK (R&D Systems, Catalog #FMK001) followed by seeding 5000 cells per well in a volume of 40 μL to a white, CulturPlate-384 (Perkin Elmer, Catalog #6007680). Stock solutions of the test compounds are prepared in 100% DMSO (Sigma, Catalog #D2650) and serially diluted 1:3 using 100% DMSO. Compounds are additionally diluted 1:40 in assay medium, and 10 μL/well was transferred to the plate. Following the compound addition, the plate is incubated at 37° C. and 5% CO2 for 22 hr. After 22 hr, viability is assessed with the addition of 20 μL of Cell Titer-Glo 2.0 (Promega, Catalog #G9243). The tissue culture plate is shaken on an orbital shaker at 300 RPM for 15 minutes at room temperature in the dark. Luminescence is measured using a PerkinElmer Envision™ plate reader. IC50 values are calculated using a four-parameter logistic curve fit using Genedata Screener software. Compounds disclosed herein are expected to have activity in this assay.

Structure (SMILES)	IC50 [nM]
CN1C(=O)[C@@H](NC(=O)c2ncc(Cl)c(-c3cccc4[nH]cnc34)n2)COc2cc(Cl)cnc21 [Example 113, (S)-4-(1H-benzo[d]imidazol-4-yl)-5-chloro-N-(8-chloro-5-methyl-4-oxo-2,3,4,5-tetrahydropyrido[3,2-b]-[1,4]oxazepin-3-yl)pyrimidine-2-carboxamide]	7760
CN1C(=O)[C@@H](NC(=O)c2ncc(Cl)c(-c3cccc(F)c3)n2)COc2cc(C#N)ccc21 [Example 128, (S)-5-chloro-N-(8-cyano-5-methyl-4-oxo-2,3,4,5-tetrahydrobenzo[b]-[1,4]oxazepin-3-yl)-4-(3-fluorophenyl)pyrimidine-2-carboxamide]	16.2
Cc1cnc(C(=O)N[C@H]2COc3ccc(N4CC5(CCOCC5)C4)cc3N(C)C2=O)nc1-c1ccccc1 [Example 26, (S)-5-methyl-N-(5-methyl-4-oxo-7-(7-oxa-2-azaspiro[3.5]nonan-2-yl)-2,3,4,5-tetrahydrobenzo[b]-[1,4]oxazepin-3-yl)-4-phenyl-pyrimidine-2-carboxamide]	14.6
Cc1ncc(-c2nc(C(=O)N[C@H]3COc4cc(Cl)cnc4N(C)C3=O)ncc2Cl)cn1 [Example 110, (S)-5-chloro-N-(8-chloro-5-methyl-4-oxo-2,3,4,5-tetrahydropyrido[3,2-b]-[1,4]oxazepin-3-yl)-2′-methyl-[4,5′-bipyrimidine]-2-carboxamide]	3560
CN1C(=O)[C@@H](NC(=O)c2ncc(Cl)c(-c3ccc(F)cc3F)n2)COc2ccc(-c3ccnn3C)cc21 [Example 149, (S)-5-chloro-4-(2,4-difluorophenyl)-N-(5-methyl-7-(1-methyl-1H-pyrazol-5-yl)-4-oxo-2,3,4,5-tetrahydrobenzo[b]-[1,4]oxazepin-3-yl)pyrimidine-2-carboxamide]	19.8
Cc1cnc(C(=O)N[C@H]2COc3cc(F)cnc3N(C)C2=O)nc1C12CCC(CC1)CC2 [Example 86, (S)-4-(bicyclo[2.2.2]octan-1-yl)-N-(8-fluoro-5-methyl-4-oxo-2,3,4,5-tetrahydro-pyrido[3,2-b][1,4]oxazepin-3-yl)-5-methylpyrimidine-2-carboxamide]	67.5
CN1C(=O)[C@@H](NC(=O)c2ncc(Cl)c(-c3cncc(F)c3)n2)COc2cccnc21 [Example 56, (S)-5-chloro-4-(5-fluoropyridin-3-yl)-N-(5-methyl-4-oxo-2,3,4,5-tetrahydropyrido[3,2-b]-[1,4]oxazepin-3-yl)pyrimidine-2-carboxamide]	180
Cc1cnc(C(=O)N[C@H]2COc3cc(Cl)cnc3N(C)C2=O)nc1C1COCCO1 (stereo partly drawn) [Example 164, N—((S)-8-chloro-5-methyl-4-oxo-2,3,4,5-tetrahydropyrido[3,2-b][1,4]oxazepin-3-yl)-4-(1,4-dioxan-2-yl)-5-methylpyrimidine-2-carboxamide]	357
CN1C(=O)[C@@H](NC(=O)c2ncc(Cl)c(C3COCCO3)n2)COc2cc(Cl)cnc21 (single isomer, unassigned) [Example 163b]	87.9
CN1C(=O)[C@@H](NC(=O)c2ncc(Cl)c(-c3ccc(F)c(F)c3)n2)COc2cc(F)cnc21 [Example 75, (S)-5-chloro-4-(3,4-difluorophenyl)-N-(8-fluoro-5-methyl-4-oxo-2,3,4,5-tetrahydropyrido[3,2-b]-[1,4]oxazepin-3-yl)pyrimidine-2-carboxamide]	11.9
CN1C(=O)[C@@H](NC(=O)c2ncc(Cl)c(-c3ccc(F)cc3F)n2)COc2ccc(Oc3ccn(C)n3)cc21 [Example 148, (S)-5-chloro-4-(2,4-difluorophenyl)-N-(5-methyl-7-((1-methyl-1H-pyrazol-3-yl)oxy)-4-oxo-2,3,4,5-tetrahydrobenzo[b]-[1,4]oxazepin-3-yl)pyrimidine-2-carboxamide]	8.58
CN1C(=O)[C@@H](NC(=O)c2ncc(Cl)c(-c3cccc(F)c3F)n2)COc2cc(Cl)cnc21 [Example 95, (S)-5-chloro-N-(8-chloro-5-methyl-4-oxo-2,3,4,5-tetrahydropyrido[3,2-b]-[1,4]oxazepin-3-yl)-4-(2,3-difluorophenyl)pyrimidine-2-carboxamide]	15.2
O=C(N[C@H]1COc2cc(F)cnc2NC1=O)c1ncc(Cl)c(-c2ccc(F)cc2F)n1 [Example 167, (S)-5-chloro-4-(2,4-difluorophenyl)-N-(8-fluoro-4-oxo-2,3,4,5-tetrahydropyrido[3,2-b][1,4]oxazepin-3-yl)pyrimidine-2-carboxamide]	464
CN1C(=O)[C@@H](NC(=O)c2ncc(Cl)c(-c3ncccc3F)n2)COc2cc(F)cnc21 [Example 85, (S)-5-chloro-N-(8-fluoro-5-methyl-4-oxo-2,3,4,5-tetrahydropyrido[3,2-b]-[1,4]oxazepin-3-yl)-4-(3-fluoropyridin-2-yl)pyrimidine-2-carboxamide]	611
Cc1cnc(C(=O)N[C@H]2COc3cccnc3N(C)C2=O)nc1C1CCOCC1 [Example 58, (S)-5-methyl-N-(5-methyl-4-oxo-2,3,4,5-tetrahydro-pyrido[3,2-b][1,4]oxazepin-3-yl)-4-(tetrahydro-2H-pyran-4-yl)pyrimidine-2-carboxamide]	229
Cc1cnc(C(=O)N[C@H]2COc3cc(Br)cnc3N(C)C2=O)nc1-c1ccccc1 [Example 29, (S)-N-(8-bromo-5-methyl-4-oxo-2,3,4,5-tetrahydropyrido[3,2-b][1,4]oxazepin-3-yl)-5-methyl-4-phenylpyrimidine-2-carboxamide]	11.7
Cc1cnc(C(=O)N[C@H]2COc3cc(C#N)ccc3N(C)C2=O)nc1N1CC2CCC1C2 (stereo partly drawn) [Example 44, 4-(2-azabicyclo[2.2.1]heptan-2-yl)-N-((S)-8-cyano-5-methyl-4-oxo-2,3,4,5-tetrahydro-benzo[b][1,4]oxazepin-3-yl)-5-methylpyrimidine-2-carboxamide]	789
CN1C(=O)[C@@H](NC(=O)c2ncc(Cl)c(-c3ccc(Cl)cc3)n2)COc2cc(F)cnc21 [Example 82, (S)-5-chloro-4-(4-chlorophenyl)-N-(8-fluoro-5-methyl-4-oxo-2,3,4,5-tetrahydropyrido[3,2-b]-[1,4]oxazepin-3-yl)pyrimidine-2-carboxamide]	13.6
CN1C(=O)[C@@H](NC(=O)c2ncc(Cl)c(-c3cc(F)ccc3F)n2)COc2ccc(Oc3cnn(C)c3)cc21 [Example 161, (S)-5-chloro-4-(2,5-difluorophenyl)-N-(5-methyl-7-((1-methyl-1H-pyrazol-4-yl)oxy)-4-oxo-2,3,4,5-tetrahydrobenzo[b]-[1,4]oxazepin-3-yl)pyrimidine-2-carboxamide]	9
CN1C(=O)[C@@H](NC(=O)c2ncc(Cl)c(-c3ccc(F)cc3F)n2)COc2ccc(N3CCOCC3)cc21 [Example 143, (S)-5-chloro-4-(2,4-difluorophenyl)-N-(5-methyl-7-morpholino-4-oxo-2,3,4,5-tetrahydrobenzo[b]-[1,4]oxazepin-3-yl)pyrimidine-2-carboxamide]	71
Cc1cnc(C(=O)N[C@H]2COc3cc(C#N)ccc3N(C)C2=O)nc1C1CCOCC1 [Example 134, (S)-N-(8-cyano-5-methyl-4-oxo-2,3,4,5-tetrahydrobenzo[b]-[1,4]oxazepin-3-yl)-5-methyl-4-(tetrahydro-2H-pyran-4-yl)-pyrimidine-2-carboxamide]	246
Cc1cccc(-c2ccnc(C(=O)N[C@H]3COc4cc(F)cnc4N(C)C3=O)n2)c1 [Example 65, (S)-N-(8-fluoro-5-methyl-4-oxo-2,3,4,5-tetrahydro-pyrido[3,2-b][1,4]oxazepin-3-yl)-4-(m-tolyl)pyrimidine-2-carboxamide]	177
Cc1ccc(-c2nc(C(=O)N[C@H]3COc4cccnc4N(C)C3=O)ncc2C)cc1F [Example 62, (S)-4-(3-fluoro-4-methylphenyl)-5-methyl-N-(5-methyl-4-oxo-2,3,4,5-tetrahydropyrido[3,2-b]-[1,4]oxazepin-3-yl)pyrimidine-2-carboxamide]	10.4
CN1C(=O)[C@@H](NC(=O)c2ncc(Cl)c(-c3cc(F)ccc3F)n2)COc2cccnc21 [Example 51, (S)-5-chloro-4-(2,5-difluorophenyl)-N-(5-methyl-4-oxo-2,3,4,5-tetrahydro-pyrido[3,2-b][1,4]oxazepin-3-yl)pyrimidine-2-carboxamide]	10.6
Cc1ccc(-c2nc(C(=O)N[C@H]3COc4cc(C#N)ccc4N(C)C3=O)ncc2C)cc1F [Example 1, (S)—N-(8-cyano-5-methyl-4-oxo-2,3,4,5-tetrahydrobenzo[b][1,4]oxazepin-3-yl)-4-(3-fluoro-4-methylphenyl)-5-methylpyrimidine-2-carboxamide]	12.4
Cc1cnc(C(=O)NC2CCc3ccccc3NC2=O)nc1-c1ccccc1 (centres unmarked) [Example 3, 5-methyl-N-(2-oxo-2,3,4,5-tetrahydro-1H-benzo[b]azepin-3-yl)-4-phenylpyrimidine-2-carboxamide]	18.5
